Assay results reported in ChEMBL document CHEMBL1201862, “PubChem BioAssay data set” (2004).
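Tested at 5 concentrations; 48 h exposure; 96-well plates; endpoints linearly interpolated, else capped at highest concentration. GI50 is the concentration that inhibits growth by half.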 Active and inactive are the calls of the source. Cut-off read from the data, not from the text of the source: active = GI50 up to about 1.1 µM and inactive = higher.

Columns and labels:
Assay in all cases: NCI anticancer screen, dose series, 48 h
786-0 = system: 786-0
A498 = system: A498
A549 = system: A549
ACHN = system: ACHN
CAKI-1 = system: CAKI-1
CCRF-CEM = system: CCRF-CEM
COLO 205 = system: COLO 205
DLD-1 = system: DLD-1
DMS-114 = system: DMS-114
DMS-273 = system: DMS-273
EKVX = system: EKVX
HCC 2998 = system: HCC 2998
HCT-116 = system: HCT-116
HCT-15 = system: HCT-15
HL-60 = system: HL-60
HOP-18 = system: HOP-18
HOP-62 = system: HOP-62
HOP-92 = system: HOP-92
HT-29 = system: HT-29
IGROV-1 = system: IGROV-1
K562 = system: K562
KM-20L2 = system: KM-20L2
KM12 = system: KM12
LOX IMVI = system: LOX IMVI
LXFL 529 = system: LXFL 529
M14 = system: M14
M19-MEL = system: M19-MEL
MOLT-4 = system: MOLT-4
Malme-3M = system: Malme-3M
NCI-H226 = system: NCI-H226
NCI-H23 = system: NCI-H23
NCI-H460 = system: NCI-H460
NCI-H522 = system: NCI-H522
OVCAR-3 = system: OVCAR-3
OVCAR-4 = system: OVCAR-4
OVCAR-5 = system: OVCAR-5
OVCAR-8 = system: OVCAR-8
RPMI-8226 = system: RPMI-8226
RXF 393 = system: RXF 393
SF-268 = system: SF-268
SF-295 = system: SF-295
SF-539 = system: SF-539
SK-MEL-28 = system: SK-MEL-28
SK-MEL-2 = system: SK-MEL-2
SK-MEL-5 = system: SK-MEL-5
SK-OV-3 = system: SK-OV-3
SN12C = system: SN12C
SNB-75 = system: SNB-75
SNB-78 = system: SNB-78
SW-620 = system: SW-620
TK-10 = system: TK-10
U-251 = system: U-251
UACC-257 = system: UACC-257
UACC-62 = system: UACC-62
UO-31 = system: UO-31
XF498 = system: XF498
SNB-19 = system: SNB-19
SR = system: SR
MCF7 = system: MCF7
NCI/ADR-RES = system: NCI/ADR-RES

CN(CCN1C(=O)c2cc([N+](=O)[O-])cc3cc([N+](=O)[O-])cc(c23)C1=O)CCN1C(=O)c2cc([N+](=O)[O-])cc3cc([N+](=O)[O-])cc(c23)C1=O
GI50 (786-0): 0.455 µM (active) | GI50 (A498): 12.8 µM (inactive) | GI50 (A549): 0.887 µM (active) | GI50 (ACHN): 0.264 µM (active) | GI50 (CAKI-1): 0.322 µM (active) | GI50 (CCRF-CEM): 0.0524 µM (active) | GI50 (COLO 205): 0.393 µM (active) | GI50 (DLD-1): 0.448 µM (active) | GI50 (DMS-114): 0.605 µM (active) | GI50 (DMS-273): 0.391 µM (active) | GI50 (EKVX): 4.26 µM (inactive) | GI50 (HCC 2998): 0.491 µM (active) | GI50 (HCT-116): 0.153 µM (active) | GI50 (HCT-15): 0.482 µM | GI50 (HL-60): 0.234 µM (active) | GI50 (HOP-18): 10.6 µM (inactive) | GI50 (HOP-62): 2.65 µM (inactive) | GI50 (HOP-92): 0.252 µM (active) | GI50 (HT-29): 0.272 µM (active) | GI50 (IGROV-1): 0.347 µM (active) | GI50 (K562): 0.23 µM (active) | GI50 (KM-20L2): 1.1 µM (active) | GI50 (KM12): 0.681 µM (active) | GI50 (LOX IMVI): 0.248 µM (active) | GI50 (LXFL 529): 0.211 µM (active) | GI50 (M14): 0.652 µM (active) | GI50 (M19-MEL): 0.369 µM (active) | GI50 (MOLT-4): 0.0485 µM (active) | GI50 (Malme-3M): 0.815 µM (active) | GI50 (NCI-H226): 0.778 µM (active) | GI50 (NCI-H23): 1.74 µM (inactive) | GI50 (NCI-H460): 0.387 µM (active) | GI50 (NCI-H522): 0.421 µM (active) | GI50 (OVCAR-3): 0.646 µM (active) | GI50 (OVCAR-4): 0.524 µM (active) | GI50 (OVCAR-5): 1.69 µM (inactive) | GI50 (OVCAR-8): 0.267 µM (active) | GI50 (RPMI-8226): 0.342 µM (active) | GI50 (RXF 393): 0.238 µM (active) | GI50 (SF-268): 0.458 µM (active) | GI50 (SF-295): 0.59 µM (active) | GI50 (SF-539): 0.399 µM (active) | GI50 (SK-MEL-28): 0.798 µM (active) | GI50 (SK-MEL-2): 0.764 µM (active) | GI50 (SK-MEL-5): 1.21 µM (inactive) | GI50 (SK-OV-3): 2.31 µM (inactive) | GI50 (SN12C): 0.332 µM (active) | GI50 (SNB-75): 0.695 µM (active) | GI50 (SNB-78): 0.255 µM (active) | GI50 (SW-620): 0.0741 µM (active) | GI50 (TK-10): 8.73 µM (inactive) | GI50 (U-251): 0.375 µM (active) | GI50 (UACC-257): 1.21 µM (inactive) | GI50 (UACC-62): 0.811 µM (active) | GI50 (UO-31): 4.8 µM (inactive) | GI50 (XF498): 0.211 µM (active)

CN(C)C=C1C(=O)N(C)C(=O)N(C)C1=O
GI50 (786-0): > 100 µM (inactive) | GI50 (A498): > 100 µM (inactive) | GI50 (A549): > 100 µM (inactive) | GI50 (ACHN): > 100 µM (inactive) | GI50 (CAKI-1): > 100 µM (inactive) | GI50 (CCRF-CEM): > 100 µM (inactive) | GI50 (DLD-1): > 100 µM (inactive) | GI50 (DMS-114): > 100 µM (inactive) | GI50 (DMS-273): > 100 µM (inactive) | GI50 (EKVX): > 100 µM (inactive) | GI50 (HCC 2998): > 100 µM (inactive) | GI50 (HCT-116): > 100 µM (inactive) | GI50 (HCT-15): > 100 µM | GI50 (HL-60): > 100 µM (inactive) | GI50 (HOP-18): > 100 µM (inactive) | GI50 (HOP-92): > 100 µM (inactive) | GI50 (HT-29): > 100 µM (inactive) | GI50 (K562): > 100 µM (inactive) | GI50 (KM-20L2): > 100 µM (inactive) | GI50 (KM12): > 100 µM (inactive) | GI50 (LOX IMVI): > 100 µM (inactive) | GI50 (LXFL 529): > 100 µM (inactive) | GI50 (M14): > 100 µM (inactive) | GI50 (M19-MEL): > 100 µM (inactive) | GI50 (MOLT-4): > 100 µM (inactive) | GI50 (Malme-3M): > 100 µM (inactive) | GI50 (NCI-H226): > 100 µM (inactive) | GI50 (NCI-H23): > 100 µM (inactive) | GI50 (NCI-H460): > 100 µM (inactive) | GI50 (OVCAR-3): > 100 µM (inactive) | GI50 (OVCAR-4): > 100 µM (inactive) | GI50 (OVCAR-5): > 100 µM (inactive) | GI50 (OVCAR-8): > 100 µM (inactive) | GI50 (RPMI-8226): > 100 µM (inactive) | GI50 (RXF 393): > 100 µM (inactive) | GI50 (SF-295): > 100 µM (inactive) | GI50 (SF-539): > 100 µM (inactive) | GI50 (SK-MEL-28): > 100 µM (inactive) | GI50 (SK-MEL-2): > 100 µM (inactive) | GI50 (SK-MEL-5): > 100 µM (inactive) | GI50 (SN12C): > 100 µM (inactive) | GI50 (SNB-19): > 100 µM (inactive) | GI50 (SNB-75): > 100 µM (inactive) | GI50 (SNB-78): > 100 µM (inactive) | GI50 (SR): > 100 µM (inactive) | GI50 (SW-620): > 100 µM (inactive) | GI50 (TK-10): > 100 µM (inactive) | GI50 (U-251): > 100 µM (inactive) | GI50 (UACC-257): > 100 µM (inactive) | GI50 (UACC-62): > 100 µM (inactive) | GI50 (UO-31): > 100 µM (inactive) | GI50 (XF498): > 100 µM (inactive)

O=C1NC(O)CCN1C1OC(CO)C(O)C1O (configuration not stated)
GI50 (A498): > 211 µM (inactive) | GI50 (A549): > 250 µM (inactive) | GI50 (CAKI-1): > 250 µM (inactive) | GI50 (CCRF-CEM): > 250 µM (inactive) | GI50 (COLO 205): > 250 µM (inactive) | GI50 (DLD-1): > 250 µM (inactive) | GI50 (DMS-114): > 250 µM (inactive) | GI50 (DMS-273): > 250 µM (inactive) | GI50 (EKVX): > 250 µM (inactive) | GI50 (HCC 2998): > 250 µM (inactive) | GI50 (HCT-116): > 141 µM (inactive) | GI50 (HCT-15): > 250 µM | GI50 (HL-60): > 250 µM (inactive) | GI50 (HOP-18): > 250 µM (inactive) | GI50 (HOP-62): > 228 µM (inactive) | GI50 (HOP-92): > 250 µM (inactive) | GI50 (HT-29): > 250 µM (inactive) | GI50 (IGROV-1): > 250 µM (inactive) | GI50 (K562): > 250 µM (inactive) | GI50 (KM-20L2): > 68.7 µM (inactive) | GI50 (KM12): > 250 µM (inactive) | GI50 (LOX IMVI): > 136 µM (inactive) | GI50 (M19-MEL): > 213 µM (inactive) | GI50 (MCF7): > 250 µM (inactive) | GI50 (MOLT-4): > 250 µM (inactive) | GI50 (Malme-3M): > 250 µM (inactive) | GI50 (NCI-H226): > 250 µM (inactive) | GI50 (NCI-H23): > 250 µM (inactive) | GI50 (NCI-H460): > 250 µM (inactive) | GI50 (NCI-H522): > 216 µM (inactive) | GI50 (NCI/ADR-RES): > 250 µM (inactive) | GI50 (OVCAR-3): > 250 µM (inactive) | GI50 (OVCAR-4): > 250 µM (inactive) | GI50 (OVCAR-5): > 92 µM (inactive) | GI50 (OVCAR-8): > 250 µM (inactive) | GI50 (RPMI-8226): > 250 µM (inactive) | GI50 (RXF 393): > 250 µM (inactive) | GI50 (SF-268): > 250 µM (inactive) | GI50 (SF-295): > 250 µM (inactive) | GI50 (SF-539): > 250 µM (inactive) | GI50 (SK-MEL-28): > 250 µM (inactive) | GI50 (SK-MEL-2): > 158 µM (inactive) | GI50 (SK-MEL-5): > 66.4 µM (inactive) | GI50 (SK-OV-3): > 250 µM (inactive) | GI50 (SN12C): > 250 µM (inactive) | GI50 (SNB-19): > 250 µM (inactive) | GI50 (SNB-75): > 250 µM (inactive) | GI50 (SNB-78): > 250 µM (inactive) | GI50 (SW-620): > 250 µM (inactive) | GI50 (U-251): > 79.8 µM (inactive) | GI50 (UACC-257): > 250 µM (inactive) | GI50 (UACC-62): > 250 µM (inactive) | GI50 (UO-31): > 250 µM (inactive) | GI50 (XF498): > 250 µM (inactive)
